Test results published in patent US6355799B1, “Substituted benzene compounds, process for their preparation, and herbicidal and defoliant compositions containing them” (ISK Americas Incorporated, priority 1997, dated 2002).

Key:
Assay type in all cases: in vivo
[1] = system: redroot pigweed (Amaranthus retroflexus, AMARE); experiment: Pre-emerge test, greenhouse herbicide activity screening; conditions: rated 14 days after application, 0 = no damage, 100 = complete death
Procedure, shortened: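 Sandy loam pots; pre-emerge: sown 1 d pre-spray, surface-watered after, then bottom-watered. Post-emerge: sown 8–21 d before, 2–3 leaf stage, + 0.25% v/v NIS, bottom-watered. Acetone, 187 l/ha track spray, 15–1000 g ai/ha. 0–100 injury score, day 14.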

[2] = system: large crabgrass (Digitaria sanguinalis, DIGSA); experiment: as above; conditions: rated 14 days after application, 0 = no damage, 100 = complete death
Procedure, shortened: (§1)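 Visual ratings on a 0-100 scale (0 no damage, 100 all plants dead) were taken at 14 days after treatment. Rates of 15-1000 g ai/ha in acetone, 187 l/ha, were sprayed onto soil one day after planting (pre-emerge) or onto 2-3 leaf plants with 0.25% v/v surfactant (post-emerge).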

[3] = system: green foxtail (Setaria viridis, SETVI); experiment: as above; conditions: rated 14 days after application, 0 = no damage, 100 = complete death
Procedure, shortened: as §1

[4] = system: johnsongrass (Sorghum halepense, SORHA); experiment: as above; conditions: rated 14 days after application, 0 = no damage, 100 = complete death
Procedure, shortened: as §1

[5] = system: sicklepod (Cassia obtusifolia, CASOB); experiment: as above; conditions: rated 14 days after application, 0 = no damage, 100 = complete death
Procedure, shortened: as §1

[6] = system: lambsquarters (Chenopodium album, CHEAL); experiment: as above; conditions: rated 14 days after application, 0 = no damage, 100 = complete death
Procedure, shortened: as §1

[7] = system: velvetleaf (Abutilon theophrasti, ABUTH); experiment: as above; conditions: rated 14 days after application, 0 = no damage, 100 = complete death
Procedure, shortened: as §1

[8] = system: ivyleaf morningglory (Ipomoea hederacea, IPOHE); experiment: as above; conditions: rated 14 days after application, 0 = no damage, 100 = complete death
Procedure, shortened: as §1

[9] = system: barnyardgrass (Echinochloa crus-galli, ECHCG); experiment: as above; conditions: rated 14 days after application, 0 = no damage, 100 = complete death
Procedure, shortened: as §1

[10] = system: common ragweed (Ambrosia artemisizfolia L., AMBEL); experiment: as above; conditions: rated 14 days after application, 0 = no damage, 100 = complete death
Procedure, shortened: as §1

[11] = system: upland rice (Oryza sp., var. Tebonnet, RICE); experiment: Pre-emerge test, crop safety; conditions: rated 14 days after application, 0 = no damage, 100 = complete death
Procedure, shortened: (§2)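 Plants grown in 10 cm pots of sandy loam mix received acetone-dissolved compounds through a moving flat-fan nozzle. Doses ranged from 15 to 1000 g ai/ha. Pre-emerge pots were seeded one day earlier, post-emerge pots 8–21 days earlier. Fourteen days on, each pot was graded 0–100 for damage.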

[12] = system: field corn (Zea mays L., var. Dekalb 535, CORN); experiment: Pre-emerge test, crop safety; conditions: rated 14 days after application, 0 = no damage, 100 = complete death
Procedure, shortened: as §2

[13] = system: upland rice (Oryza sp., var. Tebonnet, RICE); experiment: Post-emerge test, crop safety; conditions: post-emerge, 14 days after application, rating scale 0-100
Procedure, shortened: as §1

[14] = system: field corn (Zea mays L., var. Dekalb 535, CORN); experiment: Post-emerge test, crop safety; conditions: post-emerge, 14 days after application, rating scale 0-100
Procedure, shortened: as §1

[15] = system: large crabgrass (Digitaria sanguinalis, DIGSA); experiment: Post-emerge test, greenhouse herbicide activity screening; conditions: post-emerge, 14 days after application, rating scale 0-100
Procedure, shortened: (§3)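 Each test used a mechanized track sprayer delivering 187 l/ha of acetone solution at 15–1000 g ai/ha. Post-emerge foliage at 2–3 leaves was treated with added 0.25% v/v non-ionic surfactant and bottom-watered only. Injury was assessed on day 14, where 100 means total kill.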

[16] = system: green foxtail (Setaria viridis, SETVI); experiment: as above; conditions: post-emerge, 14 days after application, rating scale 0-100
Procedure, shortened: as §3

[17] = system: johnsongrass (Sorghum halepense, SORHA); experiment: as above; conditions: post-emerge, 14 days after application, rating scale 0-100
Procedure, shortened: as §3

[18] = system: sicklepod (Cassia obtusifolia, CASOB); experiment: as above; conditions: post-emerge, 14 days after application, rating scale 0-100
Procedure, shortened: as §3

[19] = system: redroot pigweed (Amaranthus retroflexus, AMARE); experiment: as above; conditions: post-emerge, 14 days after application, rating scale 0-100
Procedure, shortened: as §3

[20] = system: lambsquarters (Chenopodium album, CHEAL); experiment: as above; conditions: post-emerge, 14 days after application, rating scale 0-100
Procedure, shortened: as §3

[21] = system: velvetleaf (Abutilon theophrasti, ABUTH); experiment: as above; conditions: post-emerge, 14 days after application, rating scale 0-100
Procedure, shortened: as §3

[22] = system: ivyleaf morningglory (Ipomoea hederacea, IPOHE); experiment: as above; conditions: post-emerge, 14 days after application, rating scale 0-100
Procedure, shortened: as §3

[23] = system: barnyardgrass (Echinochloa crus-galli, ECHCG); experiment: as above; conditions: post-emerge, 14 days after application, rating scale 0-100
Procedure, shortened: as §3

[24] = system: common ragweed (Ambrosia artemisizfolia L., AMBEL); experiment: as above; conditions: post-emerge, 14 days after application, rating scale 0-100
Procedure, shortened: as §3

## COc1c(Cl)cc(F)c(-n2c(=O)cc(C(F)(F)F)n(C)c2=O)c1NC(=O)c1ccccc1F [2-39]
[1]; 63 g ai/ha
  Pre-emerge Herbicidal Activity, phytotoxicity rating (0-100), AMARE: 100
[1]; 250 g ai/ha
  Pre-emerge Herbicidal Activity, phytotoxicity rating (0-100), AMARE: 100
[2]; 63 g ai/ha
  Pre-emerge Herbicidal Activity, phytotoxicity rating (0-100), DIGSA: 99
[2]; 250 g ai/ha
  Pre-emerge Herbicidal Activity, phytotoxicity rating (0-100), DIGSA: 100
[3]; 63 g ai/ha
  Pre-emerge Herbicidal Activity, phytotoxicity rating (0-100), SETVI: 100
[3]; 250 g ai/ha
  Pre-emerge Herbicidal Activity, phytotoxicity rating (0-100), SETVI: 100
[4]; 63 g ai/ha
  Pre-emerge Herbicidal Activity, phytotoxicity rating (0-100), SORHA: 60
[4]; 250 g ai/ha
  Pre-emerge Herbicidal Activity, phytotoxicity rating (0-100), SORHA: 100
[5]; 63 g ai/ha
  Pre-emerge Herbicidal Activity, phytotoxicity rating (0-100), CASOB: 100
[5]; 250 g ai/ha
  Pre-emerge Herbicidal Activity, phytotoxicity rating (0-100), CASOB: 100
[6]; 63 g ai/ha
  Pre-emerge Herbicidal Activity, phytotoxicity rating (0-100), CHEAL: 100
[6]; 250 g ai/ha
  Pre-emerge Herbicidal Activity, phytotoxicity rating (0-100), CHEAL: 100
[7]; 63 g ai/ha
  Pre-emerge Herbicidal Activity, phytotoxicity rating (0-100), ABUTH: 100
[7]; 250 g ai/ha
  Pre-emerge Herbicidal Activity, phytotoxicity rating (0-100), ABUTH: 100
[8]; 63 g ai/ha
  Pre-emerge Herbicidal Activity, phytotoxicity rating (0-100), IPOHE: 95
[8]; 250 g ai/ha
  Pre-emerge Herbicidal Activity, phytotoxicity rating (0-100), IPOHE: 100
[9]; 63 g ai/ha
  Pre-emerge Herbicidal Activity, phytotoxicity rating (0-100), ECHCG: 90
[9]; 250 g ai/ha
  Pre-emerge Herbicidal Activity, phytotoxicity rating (0-100), ECHCG: 100
[10]; 63 g ai/ha
  Pre-emerge Herbicidal Activity, phytotoxicity rating (0-100), AMBEL: 100
[10]; 250 g ai/ha
  Pre-emerge Herbicidal Activity, phytotoxicity rating (0-100), AMBEL: 100
[11]; 63 g ai/ha
  Pre-emerge phytotoxicity rating (0-100), crop damage, RICE: 90
[11]; 250 g ai/ha
  Pre-emerge phytotoxicity rating (0-100), crop damage, RICE: 99
[12]; 63 g ai/ha
  Pre-emerge phytotoxicity rating (0-100), crop damage, CORN: 70
[12]; 250 g ai/ha
  Pre-emerge phytotoxicity rating (0-100), crop damage, CORN: 95
[13]; 63 g ai/ha
  phytotoxicity rating RICE: 30
[13]; 250 g ai/ha
  phytotoxicity rating RICE: 70
[14]; 63 g ai/ha
  phytotoxicity rating CORN: 20
[14]; 250 g ai/ha
  phytotoxicity rating CORN: 70
[15]; 63 g ai/ha
  phytotoxicity rating DIGSA: 0
[15]; 250 g ai/ha
  phytotoxicity rating DIGSA: 50
[16]; 63 g ai/ha
  phytotoxicity rating SETVI: 20
[16]; 250 g ai/ha
  phytotoxicity rating SETVI: 80
[17]; 63 g ai/ha
  phytotoxicity rating SORHA: 10
[17]; 250 g ai/ha
  phytotoxicity rating SORHA: 60
[18]; 63 g ai/ha
  phytotoxicity rating CASOB: 60
[18]; 250 g ai/ha
  phytotoxicity rating CASOB: 90
[19]; 63 g ai/ha
  phytotoxicity rating AMARE: 70
[19]; 250 g ai/ha
  phytotoxicity rating AMARE: 95
[20]; 63 g ai/ha
  phytotoxicity rating CHEAL: 90
[20]; 250 g ai/ha
  phytotoxicity rating CHEAL: 95
[21]; 63 g ai/ha
  phytotoxicity rating ABUTH: 100
[21]; 250 g ai/ha
  phytotoxicity rating ABUTH: 100
[22]; 63 g ai/ha
  phytotoxicity rating IPOHE: 99
[22]; 250 g ai/ha
  phytotoxicity rating IPOHE: 100
[23]; 63 g ai/ha
  phytotoxicity rating ECHCG: 0
[23]; 250 g ai/ha
  phytotoxicity rating ECHCG: 60
[24]; 63 g ai/ha
  phytotoxicity rating AMBEL: 50
[24]; 250 g ai/ha
  phytotoxicity rating AMBEL: 95

## COc1c(Cl)cc(F)c(-n2c(=O)cc(C(F)(F)F)n(C)c2=O)c1NC(=O)c1ccc(F)cc1 [2-40]
[1]; 63 g ai/ha
  Pre-emerge Herbicidal Activity, phytotoxicity rating (0-100), AMARE: 100
[1]; 250 g ai/ha
  Pre-emerge Herbicidal Activity, phytotoxicity rating (0-100), AMARE: 100
[2]; 63 g ai/ha
  Pre-emerge Herbicidal Activity, phytotoxicity rating (0-100), DIGSA: 90
[2]; 250 g ai/ha
  Pre-emerge Herbicidal Activity, phytotoxicity rating (0-100), DIGSA: 100
[3]; 63 g ai/ha
  Pre-emerge Herbicidal Activity, phytotoxicity rating (0-100), SETVI: 100
[3]; 250 g ai/ha
  Pre-emerge Herbicidal Activity, phytotoxicity rating (0-100), SETVI: 100
[4]; 63 g ai/ha
  Pre-emerge Herbicidal Activity, phytotoxicity rating (0-100), SORHA: 60
[4]; 250 g ai/ha
  Pre-emerge Herbicidal Activity, phytotoxicity rating (0-100), SORHA: 100
[5]; 63 g ai/ha
  Pre-emerge Herbicidal Activity, phytotoxicity rating (0-100), CASOB: 80
[5]; 250 g ai/ha
  Pre-emerge Herbicidal Activity, phytotoxicity rating (0-100), CASOB: 100
[6]; 63 g ai/ha
  Pre-emerge Herbicidal Activity, phytotoxicity rating (0-100), CHEAL: 100
[6]; 250 g ai/ha
  Pre-emerge Herbicidal Activity, phytotoxicity rating (0-100), CHEAL: 100
[7]; 63 g ai/ha
  Pre-emerge Herbicidal Activity, phytotoxicity rating (0-100), ABUTH: 100
[7]; 250 g ai/ha
  Pre-emerge Herbicidal Activity, phytotoxicity rating (0-100), ABUTH: 100
[8]; 63 g ai/ha
  Pre-emerge Herbicidal Activity, phytotoxicity rating (0-100), IPOHE: 90
[8]; 250 g ai/ha
  Pre-emerge Herbicidal Activity, phytotoxicity rating (0-100), IPOHE: 100
[9]; 63 g ai/ha
  Pre-emerge Herbicidal Activity, phytotoxicity rating (0-100), ECHCG: 85
[9]; 250 g ai/ha
  Pre-emerge Herbicidal Activity, phytotoxicity rating (0-100), ECHCG: 100
[10]; 63 g ai/ha
  Pre-emerge Herbicidal Activity, phytotoxicity rating (0-100), AMBEL: 100
[10]; 250 g ai/ha
  Pre-emerge Herbicidal Activity, phytotoxicity rating (0-100), AMBEL: 100
[11]; 63 g ai/ha
  Pre-emerge phytotoxicity rating (0-100), crop damage, RICE: 95
[11]; 250 g ai/ha
  Pre-emerge phytotoxicity rating (0-100), crop damage, RICE: 100
[12]; 63 g ai/ha
  Pre-emerge phytotoxicity rating (0-100), crop damage, CORN: 50
[12]; 250 g ai/ha
  Pre-emerge phytotoxicity rating (0-100), crop damage, CORN: 95
[13]; 63 g ai/ha
  phytotoxicity rating RICE: 50
[13]; 250 g ai/ha
  phytotoxicity rating RICE: 95
[14]; 63 g ai/ha
  phytotoxicity rating CORN: 40
[14]; 250 g ai/ha
  phytotoxicity rating CORN: 90
[15]; 63 g ai/ha
  phytotoxicity rating DIGSA: 10
[15]; 250 g ai/ha
  phytotoxicity rating DIGSA: 90
[16]; 63 g ai/ha
  phytotoxicity rating SETVI: 10
[16]; 250 g ai/ha
  phytotoxicity rating SETVI: 90
[17]; 63 g ai/ha
  phytotoxicity rating SORHA: 30
[17]; 250 g ai/ha
  phytotoxicity rating SORHA: 100
[18]; 63 g ai/ha
  phytotoxicity rating CASOB: 50
[18]; 250 g ai/ha
  phytotoxicity rating CASOB: 90
[19]; 63 g ai/ha
  phytotoxicity rating AMARE: 90
[19]; 250 g ai/ha
  phytotoxicity rating AMARE: 100
[20]; 63 g ai/ha
  phytotoxicity rating CHEAL: 80
[20]; 250 g ai/ha
  phytotoxicity rating CHEAL: 95
[21]; 63 g ai/ha
  phytotoxicity rating ABUTH: 100
[21]; 250 g ai/ha
  phytotoxicity rating ABUTH: 100
[22]; 63 g ai/ha
  phytotoxicity rating IPOHE: 100
[22]; 250 g ai/ha
  phytotoxicity rating IPOHE: 100
[23]; 63 g ai/ha
  phytotoxicity rating ECHCG: 0
[23]; 250 g ai/ha
  phytotoxicity rating ECHCG: 100
[24]; 63 g ai/ha
  phytotoxicity rating AMBEL: 80
[24]; 250 g ai/ha
  phytotoxicity rating AMBEL: 100
